Key:
PC12 cells = test: Cytotoxicity in PC12 cells (MTT); format: cell-based
Protocol: The cytotoxicity and neuroprotective effects of the compounds on PC12 cells were evaluated by MTT assay. PC12 cells were seeded into a 96-well plate at a density of 5.0 × 10^3 cells per well. After the cells were incubated overnight, the old medium was discarded. The cells were incubated for another 24 h with fresh medium containing compounds at a concentration of 30 or 50 μM. A total of 20 μL of MTT solution (5 mg/mL, Sigma-Aldrich, Shanghai, China) was then added per well, and the cells were incubated for an additional 4 h. Afterwards, the supernatant was removed and 150 μL of DMSO was added to solubilize formazan crystals. The 96-well plate was placed on the shaker for 10–15 min, and then the absorbance at 492 nm was measured by a microplate reader.

H2O2-induced PC12 cells = test: Neuroprotection against H2O2-induced PC12 cell injury (MTT); format: cell-based; conditions: H2O2 250 μM, mean ± SEM
Protocol: Neuroprotection assay is similar to cytotoxicity. Oxidative cellular damage caused by H2O2 has become one of the important methods to study oxidative damage in neural cells. PC12 cells were seeded into a 96-well plate at a density of 5.0 × 10^3 cells per well. After the cells were incubated overnight, the old medium was discarded. […] After incubating overnight, 20 μL of MTT solution (5 mg/mL, Sigma-Aldrich) was added per well, and the cells were incubated for an additional 4 h. Afterwards, the supernatant was removed and 150 μL of DMSO was added. The 96-well plate was placed on the shaker for 10–15 min, and then the absorbance at 492 nm was measured by a microplate reader.

[1] = biological target: T1, BuChE (from equine serum) (Equus caballus, UniProt P81908); test: biochemical; conditions: mean ± SD of three experiments, read-out: BuChE Inhibition (IC50)
T1 construct: BuChE (from equine serum); purchased Sigma Chemical Company (St. Louis, MO, USA); host or cells: equine serum
Protocol: (§1) The ChE inhibitory activity of the test compounds was determined using the modified Ellman’s method. The compounds were dissolved in DMSO (10 mmol/L) and then diluted with PB (phosphate buffer) solution to attain a range of final concentrations. […] Briefly, 100 μL of different concentrations of the test or standard compounds and 100 μL of AChE/BuChE (0.5 U/mL) were added into 48-well plates and then co-incubated at 37 °C for 30 min. […] All concentrations mentioned are final.

AChE (from electric eel) = biological target: T2, AChE (from electric eel) (Electrophorus electricus, UniProt O42275); test: biochemical; conditions: for IC50: AChE from electric eel, mean ± SD of three experiments, read-out: AChE Inhibition (IC50); for Selective Index, IC50 (BChE)/IC50 (AChE): AChE selectivity index
T2 construct: AChE (from electric eel); purchased Sigma Chemical Company (St. Louis, MO, USA)
Protocol: as §1

T1 sequence (P81908 whole entry): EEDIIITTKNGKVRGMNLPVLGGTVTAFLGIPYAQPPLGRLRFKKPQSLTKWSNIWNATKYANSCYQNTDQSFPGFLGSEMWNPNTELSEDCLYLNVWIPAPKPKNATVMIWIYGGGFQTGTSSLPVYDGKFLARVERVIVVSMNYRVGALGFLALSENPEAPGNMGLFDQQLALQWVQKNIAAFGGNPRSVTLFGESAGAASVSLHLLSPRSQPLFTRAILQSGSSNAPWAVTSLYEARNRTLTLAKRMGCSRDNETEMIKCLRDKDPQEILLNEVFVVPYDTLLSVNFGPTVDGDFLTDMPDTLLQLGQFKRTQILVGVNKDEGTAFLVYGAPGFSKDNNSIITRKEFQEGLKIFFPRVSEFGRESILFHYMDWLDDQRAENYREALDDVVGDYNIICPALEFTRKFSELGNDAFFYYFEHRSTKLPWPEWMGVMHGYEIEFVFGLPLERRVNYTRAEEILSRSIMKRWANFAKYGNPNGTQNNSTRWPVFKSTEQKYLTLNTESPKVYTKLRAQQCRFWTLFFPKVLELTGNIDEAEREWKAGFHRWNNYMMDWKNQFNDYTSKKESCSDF
T2 sequence (O42275 24-633): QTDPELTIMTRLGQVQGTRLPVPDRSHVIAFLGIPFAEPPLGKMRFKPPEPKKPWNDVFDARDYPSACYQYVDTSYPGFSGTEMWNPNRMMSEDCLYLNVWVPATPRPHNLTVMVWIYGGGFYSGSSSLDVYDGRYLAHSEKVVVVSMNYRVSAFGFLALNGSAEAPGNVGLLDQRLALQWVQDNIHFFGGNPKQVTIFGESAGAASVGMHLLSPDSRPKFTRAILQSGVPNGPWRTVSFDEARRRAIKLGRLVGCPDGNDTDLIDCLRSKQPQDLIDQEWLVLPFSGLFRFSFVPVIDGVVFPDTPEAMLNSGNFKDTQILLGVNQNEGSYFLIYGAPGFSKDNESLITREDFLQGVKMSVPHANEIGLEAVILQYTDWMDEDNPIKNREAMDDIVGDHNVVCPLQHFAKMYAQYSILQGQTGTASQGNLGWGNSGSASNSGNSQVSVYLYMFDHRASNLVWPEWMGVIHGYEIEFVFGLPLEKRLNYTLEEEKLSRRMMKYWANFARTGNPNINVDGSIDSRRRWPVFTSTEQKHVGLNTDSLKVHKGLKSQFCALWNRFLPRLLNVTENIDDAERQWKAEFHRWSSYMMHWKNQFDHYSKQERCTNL

SMILES | Cell Viability (% of Control) (PC12 cells; compound 30 μM) | Cell Viability (% of Control) (PC12 cells; compound 50 μM) | H2O2-Induced PC12 Cell Viability (% of Control) (H2O2-induced PC12 cells; compound 10 μM) | H2O2-Induced PC12 Cell Viability (% of Control) (H2O2-induced PC12 cells; compound 30 μM) | IC50 [1] | IC50 (AChE (from electric eel)) | Selective Index, IC50 (BChE)/IC50 (AChE) (AChE (from electric eel))
COc1ccc(S(=O)(=O)Nc2ccc3nc4n(c(=O)c3c2)-c2ccccc2C4=O)c(OC)c1 [8l] | 99.4 ± 1.1 % of Control | 98.7 ± 1.3 % of Control | 34.61 ± 3.7 % of Control | 38.1 ± 2.7 % of Control | > 50 µM | > 50 µM | 
CC(C)c1cc(C(C)C)c(S(=O)(=O)Nc2ccc3c(c2)C(=O)c2nc4ccccc4c(=O)n2-3)c(C(C)C)c1 [4d] | 99.4 ± 2.4 % of Control | 97.3 ± 3.6 % of Control | 42.53 ± 2.7 % of Control | 50.1 ± 0.8 % of Control | > 50 µM | > 50 µM | 
Cc1ccc(S(=O)(=O)Nc2ccc3nc4n(c(=O)c3c2)-c2ccccc2C4=O)cc1 [8b] | 101.2 ± 3.1 % of Control | 99.8 ± 2.4 % of Control | 42.01 ± 1.7 % of Control | 51.37 ± 2.1 % of Control | > 50 µM | 4.55 ± 0.8 µM | 
O=c1c(O)c(-c2ccc(O)c(O)c2)oc2cc(O)cc(O)c12 [Quercetin, reference compound] | 99.6 ± 1.1 % of Control | 99.5 ± 1.3 % of Control | 55.21 ± 1.6 % of Control | 63.27 ± 2.1 % of Control |  |  | 
COc1ccc(S(=O)(=O)Nc2ccc3c(c2)C(=O)c2nc4ccccc4c(=O)n2-3)cc1 [4j] | 99.7 ± 1.6 % of Control | 99.1 ± 1.2 % of Control | 38.24 ± 3.1 % of Control | 41.69 ± 1.7 % of Control | > 50 µM | > 50 µM | 
Cc1ccc(S(=O)(=O)Nc2ccc3c(c2)C(=O)c2nc4ccccc4c(=O)n2-3)cc1 [4b] | 99.7 ± 0.9 % of Control | 99.5 ± 1.5 % of Control | 47.36 ± 1.7 % of Control | 59.09 ± 2.5 % of Control | 8.61 ± 1.2 µM | 5.75 ± 0.27 µM | 1.5
O=C1c2ccccc2-n2c1nc1ccc(NS(=O)(=O)c3cccc(F)c3)cc1c2=O [8g] | 99.6 ± 1.2 % of Control | 99.5 ± 2.7 % of Control | 44.37 ± 0.5 % of Control | 52.28 ± 2.3 % of Control | > 50 µM | > 50 µM | 
CC(=O)Nc1ccc(S(=O)(=O)Nc2ccc3c(c2)C(=O)c2nc4ccccc4c(=O)n2-3)cc1 [4i] | 99.6 ± 1.7 % of Control | 98.3 ± 3.0 % of Control | 34.43 ± 5.5 % of Control | 40.93 ± 2.9 % of Control | > 50 µM | 8.8 ± 1.23 µM | 
O=C1c2cc(NS(=O)(=O)c3ccc(F)cc3)ccc2-n2c1nc1ccccc1c2=O [4f] | 99.4 ± 1.6 % of Control | 98.7 ± 1.1 % of Control | 45.23 ± 2.2 % of Control | 55.26 ± 0.5 % of Control | 11.9 ± 1.86 µM | 0.56 ± 0.07 µM | 21.2
CC(=O)Nc1ccc(S(=O)(=O)Nc2ccc3nc4n(c(=O)c3c2)-c2ccccc2C4=O)cc1 [8i] | 99.8 ± 1.2 % of Control | 99.4 ± 1.3 % of Control | 48.46 ± 1.6 % of Control | 59.63 ± 2.5 % of Control | 25.9 ± 2.38 µM | > 50 µM | 
O=C1c2ccccc2-n2c1nc1ccc(NS(=O)(=O)c3ccccc3)cc1c2=O [8a] | 100.1 ± 1.5 % of Control | 99.8 ± 1.7 % of Control | 39.65 ± 3.1 % of Control | 50.98 ± 1.8 % of Control | > 50 µM | 14 ± 1.67 µM | 
COc1ccc(S(=O)(=O)Nc2ccc3c(c2)C(=O)c2nc4ccccc4c(=O)n2-3)c(OC)c1 [4l] | 100.2 ± 3.1 % of Control | 99.8 ± 2.7 % of Control | 36.35 ± 1.6 % of Control | 39.84 ± 2.8 % of Control | > 50 µM | 18.6 ± 1.77 µM | 
O=C1c2cc(NS(=O)(=O)c3ccc(OC(F)(F)F)cc3)ccc2-n2c1nc1ccccc1c2=O [4m] | 99.6 ± 0.8 % of Control | 99.3 ± 2.1 % of Control | 37.89 ± 4.3 % of Control | 44.98 ± 2.5 % of Control | 10.2 ± 1.24 µM | 7.75 ± 0.21 µM | 
O=C1c2cc(NS(=O)(=O)c3ccccc3C(F)(F)F)ccc2-n2c1nc1ccccc1c2=O [4o] | 99.6 ± 2.7 % of Control | 98.2 ± 1.7 % of Control | 42.32 ± 0.7 % of Control | 50.5 ± 0.5 % of Control | 8.61 ± 1.2 µM | 2.45 ± 0.25 µM | 3.5
O=C1c2cc(NS(=O)(=O)c3c(Cl)cccc3Cl)ccc2-n2c1nc1ccccc1c2=O [4p] | 99.6 ± 2.7 % of Control | 99.3 ± 2.9 % of Control | 48.49 ± 4.5 % of Control | 65.6 ± 2.2 % of Control | > 50 µM | 0.62 ± 0.09 µM | 
CC(C)c1cc(C(C)C)c(S(=O)(=O)Nc2ccc3nc4n(c(=O)c3c2)-c2ccccc2C4=O)c(C(C)C)c1 [8d] | 99.8 ± 0.7 % of Control | 98.7 ± 2.6 % of Control | 39.65 ± 5.2 % of Control | 53.26 ± 1.4 % of Control | > 50 µM | > 50 µM | 
O=C1c2ccccc2-n2c1nc1ccc(NS(=O)(=O)c3ccccc3C(F)(F)F)cc1c2=O [8o] | 99.7 ± 2.4 % of Control | 99.4 ± 1.1 % of Control | 42.56 ± 2.1 % of Control | 54.6 ± 3.8 % of Control | > 50 µM | 8.86 ± 0.76 µM | 
COc1ccc(S(=O)(=O)Nc2ccc3nc4n(c(=O)c3c2)-c2ccccc2C4=O)cc1OC [8k] | 99.6 ± 1.2 % of Control | 99.5 ± 2.7 % of Control | 44.37 ± 0.5 % of Control | 52.28 ± 2.3 % of Control | > 50 µM | > 50 µM | 
O=C1c2ccccc2-n2c1nc1ccc(NS(=O)(=O)c3ccccc3F)cc1c2=O [8h] | 99.4 ± 1.4 % of Control | 98.3 ± 2.7 % of Control | 36.03 ± 3.0 % of Control | 46.73 ± 3.5 % of Control | > 50 µM | > 50 µM | 
O=C1c2cc(NS(=O)(=O)c3ccc(Br)cc3)ccc2-n2c1nc1ccccc1c2=O [4e] | 99.6 ± 2.1 % of Control | 99.5 ± 2.3 % of Control | 42.8 ± 1.5 % of Control | 57.51 ± 0.8 % of Control | > 50 µM | 33 ± 1.91 µM | 
CC(C)(C)c1ccc(S(=O)(=O)Nc2ccc3c(c2)C(=O)c2nc4ccccc4c(=O)n2-3)cc1 [4c] | 99.5 ± 3.1 % of Control | 98.2 ± 1.7 % of Control | 45.59 ± 0.7 % of Control | 56.4 ± 1.2 % of Control | 8.13 ± 1.21 µM | 2.56 ± 0.32 µM | 3.2
O=C1c2ccccc2-n2c1nc1ccc(NS(=O)(=O)c3c(Cl)cccc3Cl)cc1c2=O [8p] | 99.6 ± 2.7 % of Control | 98.2 ± 1.7 % of Control | 42.32 ± 0.7 % of Control | 50.5 ± 0.5 % of Control | > 50 µM | > 50 µM | 

— paper PMC10610214 (Pharmaceuticals, 2023)
